Patent US8299048B2, “Hexahydrocyclopentyl[f]indazole sulfonamides and derivatives thereof as selective glucocorticoid receptor modulators” (Merck Sharp & Dohme Corp., priority 2008, dated 2012)
Read-outs that look alike come from different tables or passages of the source.

Target: T1, human GR (Homo sapiens, UniProt P04150)
T1 sequence (P04150 1-777): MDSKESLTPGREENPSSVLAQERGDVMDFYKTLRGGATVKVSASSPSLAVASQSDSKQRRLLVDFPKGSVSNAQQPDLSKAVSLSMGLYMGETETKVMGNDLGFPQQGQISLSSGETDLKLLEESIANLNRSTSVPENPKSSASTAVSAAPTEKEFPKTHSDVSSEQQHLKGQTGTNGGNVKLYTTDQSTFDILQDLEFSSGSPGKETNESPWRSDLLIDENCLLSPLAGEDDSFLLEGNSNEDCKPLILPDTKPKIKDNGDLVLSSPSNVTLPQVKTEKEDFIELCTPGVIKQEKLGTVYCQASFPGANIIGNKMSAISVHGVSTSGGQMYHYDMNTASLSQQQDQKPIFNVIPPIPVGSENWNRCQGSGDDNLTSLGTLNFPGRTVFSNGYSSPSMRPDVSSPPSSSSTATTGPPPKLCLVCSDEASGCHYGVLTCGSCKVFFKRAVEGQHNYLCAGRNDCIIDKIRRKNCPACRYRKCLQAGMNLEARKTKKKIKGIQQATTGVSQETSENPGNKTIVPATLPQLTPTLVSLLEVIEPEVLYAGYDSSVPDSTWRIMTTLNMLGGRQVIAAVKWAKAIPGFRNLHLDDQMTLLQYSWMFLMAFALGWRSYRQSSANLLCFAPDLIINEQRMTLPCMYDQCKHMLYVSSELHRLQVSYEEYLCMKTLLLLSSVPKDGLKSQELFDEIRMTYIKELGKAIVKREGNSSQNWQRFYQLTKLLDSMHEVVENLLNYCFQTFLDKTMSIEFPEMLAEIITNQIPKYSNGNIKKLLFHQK
Test: Transrepression Assay (GITAR), TNFα-β-lactamase reporter in U937 cells
Format: cell-based
Set-up: U937 cells contain an endogenous glucocorticoid receptor (GR); endogenous in cells; host or cells: U937 cells stably transfected with the TNF-alpha promoter/beta-lactamase reporter
Settings: for GITAR > GRAMM % SEP: GITAR Emax minus GRAMMER Emax; for EC50: U937 cells, inflection point, read-out: Transrepression U937 Cells GITAR IP
How it was run: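 U937 cells with endogenous GR, stably carrying TNFα promoter–β-lactamase, preincubated with compound 30–45 min at 37° C, then stimulated with PMA 5 ng/ml and LPS 100 ng/ml (final) ~18 hr. Read-out via CCF2-AM loading; repression by 100 nM dexamethasone set as 100%.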

[1] = U-937, U937 cells, maximum activity, read-out: Transrepression U937 Cells GITAR Emax
[2] = U-937, activity repressed by 100 nM dexamethasone alone set as 100%, read-out: maximal activity in the transrepression (GITAR) assay

SMILES	GITAR > GRAMM % SEP	EC50	Emax [1]	Emax [2]
Cc1cc(S(=O)(=O)N(CC#N)C[C@H]2CCC3=Cc4c(cnn4-c4ccc(F)cc4)C[C@@]32C)c(C)o1 [Example 33, (4αR,5S)-5-({(cyanomethyl)[(2,5-dimethyl-3-furyl)sulfonyl]amino}methyl)-1-(4-fluorophenyl)-4α-methyl-1,4,4α,5,6,7-hexahydrocyclopenta[f]indazol-2-ium]	44.5%	1200 nM	59.7%	> 5%
COC(=O)c1sccc1S(=O)(=O)N(CC#N)C[C@H]1CCC2=Cc3c(cnn3-c3ccc(F)cc3)C[C@@]21C [Example 34, methyl 3-[((cyanomethyl){[(4αR,5S)-1-(4-fluorophenyl)-4α-methyl-1,4,4α,5,6,7-hexahydrocyclopenta[f]indazol-5-yl]methyl}amino)sulfonyl]thiophene-2-carboxylate]	8.9%	1780 nM	45.9%	> 5%
Cn1cnc(S(=O)(=O)N(CC#N)C[C@H]2CCC3=Cc4c(cnn4-c4ccc(F)cc4)C[C@@]32C)c1 [Example 37, N-(cyanomethyl)-N-{[(4αR,5S)-1-(4-fluorophenyl}-4α-methyl-1,4,4α,5,6,7-hexahydrocyclopenta[f]indazol-5-yl]methyl}-1-methyl-1H-imidazole-4-sulfonamide]	30.9%	1350 nM	33.8%	> 5%
C[C@]12Cc3cnn(-c4ccc(F)cc4)c3C=C1CC[C@@H]2CN(CC#N)S(=O)(=O)c1ccc(Oc2cccc(Cl)c2C#N)cc1 [Example 38, 4-(3-chloro-2-cyanophenoxy)-N-(cyanomethyl)-N-{[(4αR,5S)-1-(4-fluorophenyl)-4α-methyl-1,4,4α,5,6,7-hexahydrocyclopenta[f]indazol-5-yl]methyl}benzenesulfonamide]	32.5%	2340 nM	33.8%	> 5%
C[C@]12Cc3cnn(-c4ccc(F)cc4)c3C=C1CC[C@@H]2CN(CC#N)S(=O)(=O)c1ccccc1F [Example 43, N-(cyanomethyl)-2-fluoro-N-{[(4αR,5S)-1-(4-fluorophenyl)-4α-methyl-1,4,4α,5,6,7-hexahydrocyclopenta[f]indazol-5-yl]methyl}benzenesulfonamide]	35.8%	1100 nM	71.8%	> 5%
C[C@]12Cc3cnn(-c4ccc(F)cc4)c3C=C1CC[C@@H]2CN(CC#N)S(=O)(=O)c1cc(F)cc(F)c1 [Example 44, N-(cyanomethyl)-3,5-difluoro-N-{[(4αR,5S)-1-(4-fluorophenyl)-4α-methyl-1,4,4α,5,6,7-hexahydrocyclopenta[f]indazol-5-yl]methyl}benzenesulfonamide]	20.8%	1050 nM	65.6%	> 5%
C[C@]12Cc3cnn(-c4ccc(F)cc4)c3C=C1CC[C@@H]2CN(CC#N)S(=O)(=O)c1ccc(Oc2ccccn2)cc1 [Example 45, N-(cyanomethyl)-N-{[(4αR,5S)-1-(4-fluorophenyl)-4α-methyl-1,4,4α,5,6,7-hexahydrocyclopenta[f]indazol-5-yl]methyl}-4-(pyridin-2-yloxy)benzenesulfonamide]	1.3%	1390 nM	12.8%	> 5%

The next molecules have a lower EC50 than those just listed; values first:

GITAR > GRAMM % SEP	EC50	Emax [1]	Emax [2]	SMILES
16.4%	417 nM	19.9%	> 5%	C[C@]12Cc3cnn(-c4ccc(F)cc4)c3C=C1CC[C@@H]2CN(CC#N)S(=O)(=O)Cc1cccc(C(F)(F)F)c1 [Example 30, N-(cyanomethyl)-N-{[(4αR,5S)-1-(4-fluorophenyl}-4α-methyl-1,4,4α,5,6,7-hexahydrocyclopenta[f]indazol-5-yl]methyl}-1-[3-(trifluoromethyl)phenyl]methanesulfonamide]
34.0%	679 nM	54.8%	> 5%	Cc1ccc(S(=O)(=O)N(CC#N)C[C@H]2CCC3=Cc4c(cnn4-c4ccc(F)cc4)C[C@@]32C)s1 [Example 31, N-(cyanomethyl)-N-{[(4αR,5S)-1-(4-fluorophenyl}-4α-methyl-1,4,4α,5,6,7-hexahydrocyclopenta[f]indazol-5-yl]methyl}-5-methylthiophene-2-sulfonamide]
33.7%	555 nM	63.1%	> 5%	Cn1cc(S(=O)(=O)N(CC#N)C[C@H]2CCC3=Cc4c(cnn4-c4ccc(F)cc4)C[C@@]32C)c(C(F)(F)F)n1 [Example 32, N-(cyanomethyl)-N-{[(4αR,5S)-1-(4-fluorophenyl}-4α-methyl-1,4,4α,5,6,7-hexahydrocyclopenta[f]indazol-5-yl]methyl}-1-methyl-3-(trifluoromethyl)-1H-pyrazole-4-sulfonamide]
34.6%	777 nM	39.5%	> 5%	Cn1nc(C(F)(F)F)cc1-c1ccc(S(=O)(=O)N(CC#N)C[C@H]2CCC3=Cc4c(cnn4-c4ccc(F)cc4)C[C@@]32C)s1 [Example 35]
49.5%	540 nM	72.2%	> 5%	C[C@]12Cc3cnn(-c4ccc(F)cc4)c3C=C1CC[C@@H]2CN(CC#N)S(=O)(=O)c1cccc(C#N)c1 [Example 36, 3-cyano-N-(cyanomethyl)-N-{[(4αR,5S)-1-(4-fluorophenyl)-4α-methyl-1,4,4α,5,6,7-hexahydrocyclopenta[f]indazol-5-yl]methyl}benzenesulfonamide]
15.5%	34.9 nM	17.1%	> 5%	CN1CCOc2cc(S(=O)(=O)N(CC#N)C[C@H]3CCC4=Cc5c(cnn5-c5ccc(F)cc5)C[C@@]43C)ccc21 [Example 39, N-(cyanomethyl)-N-{[(4αR,5S)-1-(4-fluorophenyl)-4α-methyl-1,4,4α,5,6,7-hexahydrocyclopenta[f]indazol-5-yl]methyl}-4-methyl-3,4-dihydro-2H-1,4-benzoxazine-7-sulfonamide]
16.6%	35.5 nM	19.8%	> 5%	C[C@]12Cc3cnn(-c4ccc(F)cc4)c3C=C1CC[C@@H]2CN(CC#N)S(=O)(=O)c1cccc2ccccc12 [Example 40, N-(cyanomethyl)-N-{[(4αR,5S)-1-(4-fluorophenyl)-4α-methyl-1,4,4α,5,6,7-hexahydrocyclopenta[f]indazol-5-yl]methyl}naphthalene-1-sulfonamide]
31.6%	362 nM	91.9%	> 5%	C[C@]12Cc3cnn(-c4ccc(F)cc4)c3C=C1CC[C@@H]2CN(CC#N)S(=O)(=O)c1cc(OCC(F)(F)F)ccc1OCC(F)(F)F [Example 41, N-(cyanomethyl)-N-{[(4αR,5S)-1-(4-fluorophenyl)-4α-methyl-1,4,4α,5,6,7-hexahydrocyclopenta[f]indazol-5-yl]methyl}-2,5-bis(2,2,2-trifluoroethoxy)benzenesulfonamide]
15.1%	391 nM	19.2%	> 5%	C[C@]12Cc3cnn(-c4ccc(F)cc4)c3C=C1CC[C@@H]2CN(CC#N)S(=O)(=O)c1ccc(-c2ccccc2)cc1 [Example 42, N-(cyanomethyl)-N-{[(4αR,5S)-1-(4-fluorophenyl)-4α-methyl-1,4,4α,5,6,7-hexahydrocyclopenta[f]indazol-5-yl]methyl}biphenyl-4-sulfonamide]
